Data as given in paper PMC12472512, “Design, Synthesis, In Silico Docking, Multitarget Bioevaluation and Molecular Dynamic Simulation of Novel Pyrazolo[3,4-d]Pyrimidinone Derivatives as Potential In Vitro and In Vivo Anti-Inflammatory Agents” (Pharmaceuticals, 2025).
Several values for one entry are separate records, joined by “and”; a condition that tells them apart may be missing. Identical values can stand only once. Entries after “also recorded” stand apart in the source; their conditions may differ.

Assays:
[1] = tested on: carrageenan-induced paw edema; experiment: In vivo carrageenan-induced paw edema; details: 50 mg/kg oral, mice
TNF-α = experiment: ELISA of serum TNF-α in carrageenan-treated mice; assay type: in vivo; details: 50 mg/kg; carrageenan-treated mice at 3 h; compared to the control group
Method: To evaluate the anti-inflammatory mechanisms of these compounds, two key chemical mediators, TNF-α and IL-6, were assessed using enzyme-linked immunosorbent assay (ELISA).
(§1) All mice were sacrificed under anesthesia using ketamine/xylazine (50/15 mg/kg). Blood was collected for the ELISA assays to determine the levels of cytokines TNF-α and IL-6 using the Rat IL6 (Interleukin 6) ELISA Kit and Rat TNFα ELISA Kit (MyBioSource, San Diego, CA, USA), in accordance with the manufacturer’s instructions. The quantitative sandwich enzyme immunoassay technique is the fundamental principle of the TNF-α assay. A microplate was pre-coated with an antibody specific for TNF-α. Standards and samples were pipetted into the wells, and the immobilized antibody bound to any TNF-α that was present. A biotin-conjugated antibody that was specific for TNF-α was introduced to the wells after any unbound substances were removed. Horseradish peroxidase (HRP) conjugated with avidin was introduced to the wells subsequent to the cleaning process. After a wash to eliminate any unbound avidin–enzyme reagent, a substrate solution was introduced to the wells, and the color developed in proportion to the quantity of TNF-α bound in the initial step. The color development was halted, and the color intensity was quantified. Additionally, the Sandwich enzyme immunoassay is the test principle utilized for IL-6. The microtiter plates included in this preparation were pre-coated with an antibody that was specific to Rat IL6. A biotin-conjugated antibody specific to Rat IL6 was then added to the appropriate microtiter plate wells along with standards or samples. Subsequently, each microplate well was incubated with avidin conjugated to horseradish peroxidase (HRP). […] The addition of sulfuric acid solution terminated the enzyme–substrate reaction, and the color change was observed spectrophotometrically at a wavelength of 450 nm ± 10 nm. The concentration of Rat IL6 in the samples was subsequently determined by comparing the OD of the samples to the standard curve.
Blood was collected immediately following the decapitation of mice, performed in accordance with the institutional animal care and use committee (IACUC) guidelines. After decapitation, whole blood was allowed to flow freely and was collected directly into EDTA and heparinized tubes. The whole blood was centrifuged at 3000× g for 10 min at 4 °C, and the plasma was carefully collected and stored at –80 °C until further analysis.

human recombinant COX-2 = biological target: T1, human recombinant COX-2 (Homo sapiens, UniProt P35354); experiment: In vitro COX-2 inhibition, fluorescent inhibitor screening assay kit
T1 sequence (P35354 18-604): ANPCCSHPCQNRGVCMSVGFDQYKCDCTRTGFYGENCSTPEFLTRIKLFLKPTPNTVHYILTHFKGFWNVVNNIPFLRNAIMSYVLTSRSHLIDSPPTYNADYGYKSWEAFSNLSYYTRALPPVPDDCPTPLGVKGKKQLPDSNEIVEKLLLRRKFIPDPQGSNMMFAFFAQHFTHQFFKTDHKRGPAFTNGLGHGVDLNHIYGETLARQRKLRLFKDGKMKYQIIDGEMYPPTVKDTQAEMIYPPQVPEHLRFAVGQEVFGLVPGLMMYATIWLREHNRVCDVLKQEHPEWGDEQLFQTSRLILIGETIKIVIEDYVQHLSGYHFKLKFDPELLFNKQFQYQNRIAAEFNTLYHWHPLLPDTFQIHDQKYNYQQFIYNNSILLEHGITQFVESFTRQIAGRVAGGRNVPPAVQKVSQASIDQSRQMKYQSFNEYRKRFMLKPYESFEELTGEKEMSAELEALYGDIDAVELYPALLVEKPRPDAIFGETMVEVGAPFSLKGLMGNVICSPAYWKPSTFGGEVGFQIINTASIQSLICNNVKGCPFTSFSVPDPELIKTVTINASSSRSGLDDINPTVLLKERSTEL
Method: (§2) Test compounds, dissolved in DMSO, and were pre-incubated with the enzymes at 37 °C for 5 min before initiating the reaction with 1 mM arachidonic acid under light-protected conditions. The fluorescence was measured using a multi-well spectrophotometer (fluorescence plate reader). […] The percentage inhibition was calculated by comparing the absorbance values of the compounds to the vehicle control.
(§3) This protocol utilizes a colorimetric assay to measure the peroxidase activity of Prostaglandin G/H
(§4) Synthase (COX enzyme). The COX enzyme converts Arachidonic Acid (AA) to Prostaglandin G2
(§5) (PGG2), which is then reduced to Prostaglandin H2 (PGH2) by the inherent peroxidase activity.
(§6) peroxidase reaction co-oxidizes a chromogen, such as N,N,N',N'-Tetramethyl-p-phenylenediamine
(§7) (TMPD), resulting in a colored product that can be measured spectrophotometrically at 590-630 nm.
(§8) inhibition of COX enzyme by a test compound reduces the formation of this colored product, allowing
(§9) for the calculation of percentage inhibition and subsequent IC50 values.
(§10) o Ovine COX-1 (purified, commercially available)
(§11) • Substrate: Arachidonic Acid (AA). Prepare a stock solution in ethanol. Note: AA is unstable;
(§12) aliquot and store under inert gas (e.g., Argon) at -80°C.
(§13) • Cofactor: Hemin. Prepare a stock solution in DMSO.
(§14) • Chromogen: N,N,N',N'-Tetramethyl-p-phenylenediamine (TMPD) dihydrochloride.
(§15) • Assay Buffer: 100 mM Tris-HCl buffer, pH 8.0. May contain 1-5 mM EDTA and 1-2 µM
Phenol (acts as a cofactor for COX-2).
(§16) • Solvents: Dimethyl Sulfoxide (DMSO), Ethanol (absolute).
(§17) consistent across all wells (typically ≤1% final concentration).
o Keep all dilutions on ice.
(§18) o COX-1 Working Solution: Dilute ovine COX-1 in ice-cold assay buffer to a final
(§19) concentration of ~50-100 U/mL. Add Hemin to a final concentration of 1 µM.
(§20) o Note: The exact enzyme units (U) required must be determined by a preliminary activity
(§21) test to ensure the reaction is linear and within the dynamic range of the assay.
(§22) Substrate/Chromogen Solution (Prepare Fresh):
(§23) o To a tube containing assay buffer, add TMPD to a final concentration of 0.2-0.5 mM.
(§24) o Add Arachidonic Acid to a final concentration of 100 µM. Vortex gently.
(§25) o Keep this solution protected from light and on ice until use.
(§26) Assay Setup (Performed in duplicate or triplicate)

IL-6 = experiment: ELISA of serum IL-6 in carrageenan-treated mice; assay type: in vivo; details: 50 mg/kg; carrageenan-treated mice at 3 h
Method: Therefore, the anti-inflammatory activity of the tested compounds may hinge on their ability to suppress the pro-inflammatory TNF-α and IL-6 levels.
as §1, with “curve. […]” for “curve.”

gastric mucosa = experiment: Histopathological examination of stomach sections (H&E)
COX-1 = biological target: T2, COX-1 (Ovis aries, UniProt P05979); experiment: In vitro COX-1 inhibition, fluorescent inhibitor screening assay kit
T2 sequence (P05979 25-600): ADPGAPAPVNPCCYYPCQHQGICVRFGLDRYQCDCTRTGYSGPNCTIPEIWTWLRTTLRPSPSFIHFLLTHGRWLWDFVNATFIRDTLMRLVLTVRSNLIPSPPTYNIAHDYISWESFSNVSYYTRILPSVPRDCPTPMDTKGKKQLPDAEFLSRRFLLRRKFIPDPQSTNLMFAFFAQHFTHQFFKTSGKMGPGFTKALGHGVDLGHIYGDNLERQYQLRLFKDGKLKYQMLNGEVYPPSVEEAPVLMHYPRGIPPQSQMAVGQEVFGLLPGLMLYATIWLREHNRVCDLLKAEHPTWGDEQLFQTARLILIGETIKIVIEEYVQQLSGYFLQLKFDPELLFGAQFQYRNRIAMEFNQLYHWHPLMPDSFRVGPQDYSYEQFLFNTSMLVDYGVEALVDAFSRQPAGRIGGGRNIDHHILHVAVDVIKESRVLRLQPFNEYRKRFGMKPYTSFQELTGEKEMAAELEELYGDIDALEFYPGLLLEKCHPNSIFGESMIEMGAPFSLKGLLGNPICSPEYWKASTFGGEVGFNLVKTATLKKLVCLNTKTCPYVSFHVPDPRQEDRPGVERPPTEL
Method: as §2, §3, §4, §5, §6, §7, §8, §9, §10, §11, §12, §13, §14, §15
Phenol (acts as a cofactor for COX-2).
as §16, §17
o Keep all dilutions on ice.
as §18, §19, §20, §21, §22, §23, §24, §25, §26

COX-2 = tested on: COX-2; parameters: method as in PMID 19479756; details: cited from earlier work

| IC50 (human recombinant COX-2) [µM] | SI, in vitro COX-2 selectivity index (COX-1 IC50/COX-2 IC50) (human recombinant COX-2) | COX2 %inh (human recombinant COX-2; conc 0.1 (uM)) [%] | COX2 %inh (human recombinant COX-2; conc 1 (uM)) [%] | COX2 %inh (human recombinant COX-2; conc 10 (uM)) [%] | COX2 %inh (human recombinant COX-2; conc 100 (uM)) [%] | IC50 (COX-1) [µM] | COX1 %inh (COX-1; conc 0.01 (uM)) [%] | COX1 %inh (COX-1; conc 0.1 (uM)) [%] | COX1 %inh (COX-1; conc 1 (uM)) [%] | COX1 %inh (COX-1; conc 10 (uM)) [%] | COX1 %inh (COX-1; conc 100 (uM)) [%] | SMILES | Percentage of inhibition of carrageenan-induced paw edema ([1]; 1 h) [%] | TNF-α levels in serum (TNF-α) | IL-6 levels in serum (IL-6) | IC50 (COX-2) [µM] | further results |
| --- | --- | --- | --- | --- | --- | --- | --- | --- | --- | --- | --- | --- | --- | --- | --- | --- | --- |
| 0.266 ± 0.009 | 95.8 and 95.75 | -266 | -76 | 14.6 | 67.8 | 25.5 ± 0.86 | 0.72 | 5.18 | 15 | 31.4 | 74.9 | O=C(Cn1cnc2c(cnn2-c2ccccc2)c1=O)N(c1ccccc1)c1ccccc1 [Compound 5k, 2-(4-Oxo-1-Phenyl-1,4-Dihydro-5H-Pyrazolo[3,4-d]Pyrimidin-5-yl)-N, N-Diphenyl Acetamide] | 31.46 | significantly reduced | significantly reduced | – | Percentage of inhibition of carrageenan-induced paw edema ([1]; 2 h): 44.88%; Percentage of inhibition of carrageenan-induced paw edema ([1]; 3 h, 50 mg/kg): 54.89%; COX2 %inh (human recombinant COX-2; conc 0.01 (uM)): -394%; histological structure of the gastric mucosa (gastric mucosa; stomach sections stained with H&E, 50 mg/kg): preserved gastric tissue integrity; also recorded: intact gastric tissue; also recorded: normal histological structure of the gastric mucosa |
| 2.34 ± 0.08 | 24.47 | -448 | -273 | -103 | 46.6 | 57.3 ± 1.93 | 0.27 | 6.51 | 12.3 | 24.6 | 69.2 | CC(=NO)c1ccc(NC(=O)Cn2cnc3c(cnn3-c3ccccc3)c2=O)cc1 [Compound 5m, N-(4-(1-(Hydroxyimino)Ethyl)Phenyl)-2-(4-Oxo-1-Phenyl-1,4-Dihydro-5H-Pyrazolo[3,4-d]Pyrimidin-5-yl) Acetamide] | 3.43 | significantly reduced | significantly reduced | – | Percentage of inhibition of carrageenan-induced paw edema ([1]; 2 h, 50 mg/kg): 58.01%; Percentage of inhibition of carrageenan-induced paw edema ([1]; 3 h): 39.85%; histological structure of the gastric mucosa (gastric mucosa; stomach sections stained with H&E; 50 mg/kg): normal histological structure of the gastric mucosa |
| – | – | – | – | – | – | – | – | – | – | – | – | O=C(Nn1cnc2c(cnn2-c2ccccc2)c1=O)c1ccccc1 [Compound I] | – | – | – | 78.9 | – |
| – | – | – | – | – | – | – | – | – | – | – | – | O=C(NCc1ccccc1)c1nc2c(cnn2-c2ccccc2)c(=O)[nH]1 [II] | – | – | – | 23.8 | – |
